Assay results as given in ChEMBL document CHEMBL5346873, “Strategic modification of low-activity natural antimicrobial peptides confers antibacterial potential in vitro and in vivo” (Eur J Med Chem, 2023).
Calls of active or inactive are those of the source. The calls are words filed in the database; no cut-off is given here.

Tests used:
Aeromonas hydrophila = experiment: Antibacterial activity against Aeromonas hydrophila incubated for 16 to 20 hrs; type: functional; conditions: time 16-20 hrs
Vibrio vulnificus [1] = experiment: Synergistic antibacterial activity against Vibrio vulnificus assessed as doxycycline MIC by checkerboard microtiter plate assay; type: functional
Vibrio vulnificus [2] = experiment: Antibacterial activity against Vibrio vulnificus V1 incubated for 16 to 20 hrs; type: functional; conditions: time 16-20 hrs
Streptococcus iniae = experiment: Synergistic antibacterial activity against Streptococcus iniae in presence of doxycycline by checkerboard microtiter plate assay; type: functional
Candida tropicalis [3] = experiment: Antifungal activity against Candida tropicalis incubated for 16 to 20 hrs; type: functional; conditions: time 16-20 hrs
Klebsiella pneumoniae [4] = experiment: Synergistic antibacterial activity against Klebsiella pneumoniae expressing NDM1 assessed as fractional inhibitory concentration in presence of doxycycline by checkerboard microtiter plate assay; type: functional
Vibrio vulnificus [5] = experiment: Antibiofilm activity against Vibrio vulnificus 204 assessed as inhibition of biofilm formation at 25 to 100 ug/ml incubated for 24 hrs by crystal violet staining based assay; type: functional, organism-based; conditions: dose 25-100 µg/ml
Vibrio vulnificus [6] = experiment: Antibacterial activity against Vibrio vulnificus 204 in presence of human serum; type: functional, organism-based
Vibrio vulnificus [7] = experiment: Bactericidal activity against Vibrio vulnificus 204 incubated overnight; type: functional
Nakaseomyces glabratus [8] = experiment: Fungicidal activity against Candida glabrata incubated overnight; type: functional
Vibrio vulnificus [9] = experiment: Antibacterial activity against Vibrio vulnificus in presence of 0.1 ug/ml trypsin; type: functional, organism-based
Nakaseomyces glabratus [10] = experiment: Antifungal activity against Candida glabrata incubated for 16 to 20 hrs; type: functional; conditions: time 16-20 hrs
[11] = Cytotoxicity against human HaCaT cells incubated for 24 hrs by MTS assay; type: toxicity, cell-based; conditions: read-out: LD50
Vibrio anguillarum [12] = experiment: Antibacterial activity against Listonella anguillarum incubated for 16 to 20 hrs; type: functional; conditions: time 16-20 hrs
Escherichia coli [13] = experiment: Bactericidal activity against Escherichia coli incubated overnight; type: functional
Acinetobacter baumannii [14] = experiment: Additive antibacterial activity against Acinetobacter baumannii in presence of meropenem by checkerboard microtiter plate assay; type: functional
Streptococcus agalactiae [15] = experiment: Bactericidal activity against Streptococcus agalactiae incubated overnight; type: functional
Escherichia coli [16] = experiment: Synergistic antibacterial activity against Escherichia coli assessed as fractional inhibitory concentration in presence of meropenem by checkerboard microtiter plate assay; type: functional
Vibrio vulnificus [17] = experiment: Antibiofilm activity against Vibrio vulnificus 204 assessed as inhibition of biofilm formation at 25 ug/ml incubated for 24 hrs by crystal violet staining based assay; type: functional, organism-based; conditions: dose 25.0 µg/ml
Klebsiella pneumoniae [18] = experiment: Antibacterial activity against NDM Klebsiella pneumoniae incubated for 16 to 20 hrs; type: functional; conditions: time 16-20 hrs
Vibrio vulnificus [19] = experiment: Antibiofilm activity against Vibrio vulnificus V2 assessed as inhibition of biofilm formation at 25 ug/ml incubated for 24 hrs by crystal violet staining based assay; type: functional, organism-based; conditions: dose 25.0 µg/ml
Acinetobacter baumannii [20] = experiment: Bactericidal activity against Acinetobacter baumannii incubated for overnight; type: functional
Vibrio vulnificus [21] = experiment: Antibacterial activity against Vibrio vulnificus 204 assessed as LPS neutralization at 0.25 to 2 times MIC measured after 1 hr by LAL assay; type: functional, organism-based
[22] = Cytotoxicity against human HaCaT cells incubated for 24 hrs by alamar blue assay; type: toxicity, cell-based; conditions: read-out: LD50
Edwardsiella tarda [23] = experiment: Bactericidal activity against Edwardsiella tarda incubated overnight; type: functional
Vibrio vulnificus [24] = experiment: Synergistic antibacterial activity against Vibrio vulnificus in presence of doxycycline by checkerboard microtiter plate assay; type: functional
Vibrio vulnificus [25] = experiment: Antibiofilm activity against Vibrio vulnificus V1 assessed as inhibition of biofilm formation at 25 to 100 ug/ml incubated for 24 hrs by crystal violet staining based assay; type: functional, organism-based; conditions: dose 25-100 µg/ml
Streptococcus agalactiae [26] = experiment: Synergistic antibacterial activity against Streptococcus agalactiae in presence of doxycycline by checkerboard microtiter plate assay; type: functional
Cell membrane [27] = experiment: Induction of membrane lysis in Vibrio vulnificus at 1 time MIC incubated for 1 hr by TEM analysis; type: subcellular
Enterococcus faecium = experiment: Bactericidal activity against Enterococcus faecium incubated overnight; type: functional
Acinetobacter baumannii [28] = experiment: Synergistic antibacterial activity against Acinetobacter baumannii assessed as doxycycline MIC by checkerboard microtiter plate assay; type: functional
Pseudomonas aeruginosa [29] = experiment: Additive antibacterial activity against Pseudomonas aeruginosa assessed as fractional inhibitory concentration in presence of meropenem by checkerboard microtiter plate assay; type: functional
Edwardsiella tarda [30] = experiment: Antibacterial activity against Edwardsiella tarda incubated for 16 to 20 hrs; type: functional; conditions: time 16-20 hrs
[31] = Dermal toxicity in BALB/c mouse assessed as irritation at 125 mg/kg, TOPp measured after 48 hrs; type: organism-based; conditions: in vivo, topical_or_ocular
Vibrio vulnificus [32] = experiment: Antibiofilm activity against Vibrio vulnificus V1 assessed as inhibition of biofilm formation at 50 to 100 ug/ml incubated for 24 hrs by crystal violet staining based assay; type: functional, organism-based; conditions: dose 50-100 µg/ml
Pseudomonas aeruginosa [33] = experiment: Additive antibacterial activity against Pseudomonas aeruginosa in presence of meropenem by checkerboard microtiter plate assay; type: functional
Vibrio vulnificus [34] = experiment: Antibacterial activity against Vibrio vulnificus in presence of pancreatin; type: functional, organism-based
Candida tropicalis [35] = experiment: Fungicidal activity against Candida tropicalis incubated overnight; type: functional
Streptococcus agalactiae [36] = experiment: Synergistic antibacterial activity against Streptococcus agalactiae assessed as meropenem MIC by checkerboard microtiter plate assay; type: functional
Streptococcus agalactiae [37] = experiment: Synergistic antibacterial activity against Streptococcus agalactiae assessed as fractional inhibitory concentration in presence of meropenem by checkerboard microtiter plate assay; type: functional
Pseudomonas aeruginosa [38] = experiment: Bactericidal activity against Pseudomonas aeruginosa incubated overnight; type: functional
Vibrio alginolyticus = experiment: Antibacterial activity against Vibrio alginolyticus incubated for 16 to 20 hrs; type: functional; conditions: time 16-20 hrs
[39] = Dermal toxicity in BALB/c mouse assessed as morphological changes at 125 mg/kg, TOPp measured after 48 hrs; type: organism-based; conditions: in vivo, topical_or_ocular
Streptococcus agalactiae [40] = experiment: Synergistic antibacterial activity against Streptococcus agalactiae in presence of meropenem by checkerboard microtiter plate assay; type: functional
Vibrio harveyi = experiment: Bactericidal activity against Vibrio harveyi incubated overnight; type: functional
Vibrio vulnificus [41] = experiment: Antibacterial activity against Vibrio vulnificus 204 incubated for 16 to 20 hrs; type: functional; conditions: time 16-20 hrs
Enterococcus faecalis = experiment: Bactericidal activity against Enterococcus faecalis incubated overnight; type: functional
Cell membrane [42] = experiment: Induction of membrane depolarization in Vibrio vulnificus at 100 ug/ml by DiBAC4(3) dye based fluorescence analysis; type: subcellular; conditions: dose 100.0 µg/ml
Vibrio vulnificus [43] = experiment: Bactericidal activity against Vibrio vulnificus V1 incubated overnight; type: functional
Pseudomonas aeruginosa [44] = experiment: Additive antibacterial activity against Pseudomonas aeruginosa assessed as meropenem MIC by checkerboard microtiter plate assay; type: functional
Klebsiella oxytoca = experiment: Antibacterial activity against Klebsiella oxytoca incubated for 16 to 20 hrs; type: functional; conditions: time 16-20 hrs
Vibrio anguillarum [45] = experiment: Bactericidal activity against Listonella anguillarum incubated overnight; type: functional
Vibrio vulnificus [46] = experiment: Antibacterial activity against Vibrio vulnificus at pH 2 to 10; type: functional, organism-based
Streptococcus agalactiae [47] = experiment: Synergistic antibacterial activity against Streptococcus agalactiae assessed as fractional inhibitory concentration in presence of doxycycline by checkerboard microtiter plate assay; type: functional
Klebsiella aerogenes = experiment: Synergistic antibacterial activity against Enterobacter aerogenes assessed as fractional inhibitory concentration in presence of meropenem by checkerboard microtiter plate assay; type: functional
Vibrio vulnificus [48] = experiment: Antibiofilm activity against Vibrio vulnificus V2 assessed as inhibition of biofilm formation at 50 to 100 ug/ml incubated for 24 hrs by crystal violet staining based assay; type: functional, organism-based; conditions: dose 50-100 µg/ml
Vibrio vulnificus [49] = experiment: Antibiofilm activity against Vibrio vulnificus V3 assessed as inhibition of biofilm formation at 25 to 100 ug/ml incubated for 24 hrs by crystal violet staining based assay; type: functional, organism-based; conditions: dose 25-100 µg/ml
Escherichia coli [50] = experiment: Synergistic antibacterial activity against Escherichia coli in presence of meropenem by checkerboard microtiter plate assay; type: functional

## H-FKWKSVLKGVKGFVKGYF-OH
Aeromonas hydrophila
  MIC: > 100 µg/mL
Vibrio vulnificus [1]
  MIC: 0.006 µg/mL
Vibrio vulnificus [2]
  MIC: 12.5 µg/mL
Streptococcus iniae
  MIC: 0.024 µg/mL
Candida tropicalis [3]
  MIC: 50 µg/mL
Klebsiella pneumoniae [4]
  FIC: 0.18
Vibrio vulnificus [5]
  Activity: Active
Vibrio vulnificus [6]
  Activity: Active
Vibrio vulnificus [7]
  MBC: 6.25 µg/mL
Nakaseomyces glabratus [8]
  MFC: > 100 µg/mL
Vibrio vulnificus [9]
  Activity: Active
Nakaseomyces glabratus [10]
  MIC: > 100 µg/mL
[11]
  CC50 at 24 h: > 100 µg/mL
Vibrio anguillarum [12]
  MIC: 100 µg/mL
Escherichia coli [13]
  MBC: 6.25 µg/mL
Acinetobacter baumannii [14]
  MIC: 0.048 µg/mL
Streptococcus agalactiae [15]
  MBC: 3.12 µg/mL
Escherichia coli [16]
  FIC: 0.07
Vibrio vulnificus [17]
  Activity: inactive
Klebsiella pneumoniae [18]
  MIC: 25 µg/mL
Vibrio vulnificus [19]
  Activity: inactive
Acinetobacter baumannii [20]
  MBC: 3.12 µg/mL
Vibrio vulnificus [21]
  Activity: Active
[22]
  CC50 at 24 h: > 100 µg/mL
Edwardsiella tarda [23]
  MBC: 50 µg/mL
Vibrio vulnificus [24]
  MIC: 0.097 µg/mL
Vibrio vulnificus [25]
  Activity: Active
Streptococcus agalactiae [26]
  MIC: 0.097 µg/mL
Cell membrane [27]
  Activity: Active
Enterococcus faecium
  MBC: > 100 µg/mL
Acinetobacter baumannii [28]
  MIC: 0.003 µg/mL
Pseudomonas aeruginosa [29]
  FIC: 0.75
Edwardsiella tarda [30]
  MIC: 50 µg/mL
[31]
  Activity: Non-Toxic
Vibrio vulnificus [32]
  Activity: Active
Pseudomonas aeruginosa [33]
  MIC: 6.25 µg/mL
Vibrio vulnificus [34]
  Activity: Active
Candida tropicalis [35]
  MFC: 100 µg/mL
Streptococcus agalactiae [36]
  MIC: 0.002 µg/mL
Streptococcus agalactiae [37]
  FIC: 0.07
Pseudomonas aeruginosa [38]
  MBC: 50 µg/mL
Vibrio alginolyticus
  MIC: 3.12 µg/mL
[39]
  Activity: Non-Toxic
Streptococcus agalactiae [40]
  MIC: 0.097 µg/mL
Vibrio harveyi
  MBC: > 100 µg/mL
Vibrio vulnificus [41]
  MIC: 6.25 µg/mL
Enterococcus faecalis
  MBC: > 100 µg/mL
Cell membrane [42]
  Activity: Active
Vibrio vulnificus [43]
  MBC: 12.5 µg/mL
Pseudomonas aeruginosa [44]
  MIC: 0.195 µg/mL
Klebsiella oxytoca
  MIC: 25 µg/mL
Vibrio anguillarum [45]
  MBC: 100 µg/mL
Vibrio vulnificus [46]
  Activity: Active
Streptococcus agalactiae [47]
  FIC: 0.14
Klebsiella aerogenes
  FIC: 0.14
Vibrio vulnificus [48]
  Activity: Active
Vibrio vulnificus [49]
  Activity: Active
Escherichia coli [50]
  MIC: 0.097 µg/mL

## H-KKCIAKAILKKAKKLLKKLVNP-OH
Aeromonas hydrophila
  MIC: > 100 µg/mL
Vibrio vulnificus [1]
  MIC: 0.006 µg/mL
Vibrio vulnificus [2]
  MIC: 12.5 µg/mL
Streptococcus iniae
  MIC: 0.048 µg/mL
Candida tropicalis [3]
  MIC: 100 µg/mL
Klebsiella pneumoniae [4]
  FIC: 0.37
Vibrio vulnificus [5]
  Activity: Active
Vibrio vulnificus [6]
  Activity: Active
Vibrio vulnificus [7]
  MBC: 6.25 µg/mL
Nakaseomyces glabratus [8]
  MFC: > 100 µg/mL
Vibrio vulnificus [9]
  Activity: Active
Nakaseomyces glabratus [10]
  MIC: > 100 µg/mL
[11]
  CC50 at 24 h: > 100 µg/mL
Vibrio anguillarum [12]
  MIC: 50 µg/mL
Escherichia coli [13]
  MBC: 12.5 µg/mL
Acinetobacter baumannii [14]
  MIC: 0.048 µg/mL
Streptococcus agalactiae [15]
  MBC: 3.12 µg/mL
Escherichia coli [16]
  FIC: 0.07
Vibrio vulnificus [17]
  Activity: inactive
Klebsiella pneumoniae [18]
  MIC: 25 µg/mL
Vibrio vulnificus [19]
  Activity: inactive
Acinetobacter baumannii [20]
  MBC: 1.56 µg/mL
Vibrio vulnificus [21]
  Activity: inactive
[22]
  CC50 at 24 h: > 100 µg/mL
Edwardsiella tarda [23]
  MBC: > 100 µg/mL
Vibrio vulnificus [24]
  MIC: 0.195 µg/mL
Vibrio vulnificus [25]
  Activity: Active
Streptococcus agalactiae [26]
  MIC: 0.195 µg/mL
Cell membrane [27]
  Activity: Active
Enterococcus faecium
  MBC: > 100 µg/mL
Acinetobacter baumannii [28]
  MIC: 0.003 µg/mL
Pseudomonas aeruginosa [29]
  FIC: 0.53
Edwardsiella tarda [30]
  MIC: > 100 µg/mL
[31]
  Activity: Non-Toxic
Vibrio vulnificus [32]
  Activity: Active
Pseudomonas aeruginosa [33]
  MIC: 0.78 µg/mL
Vibrio vulnificus [34]
  Activity: Active
Candida tropicalis [35]
  MFC: > 100 µg/mL
Streptococcus agalactiae [36]
  MIC: 0.002 µg/mL
Streptococcus agalactiae [37]
  FIC: 0.07
Pseudomonas aeruginosa [38]
  MBC: 50 µg/mL
Vibrio alginolyticus
  MIC: 3.12 µg/mL
[39]
  Activity: Non-Toxic
Streptococcus agalactiae [40]
  MIC: 0.195 µg/mL
Vibrio harveyi
  MBC: 25 µg/mL
Vibrio vulnificus [41]
  MIC: 6.25 µg/mL
Enterococcus faecalis
  MBC: > 100 µg/mL
Cell membrane [42]
  Activity: Active
Vibrio vulnificus [43]
  MBC: 12.5 µg/mL
Pseudomonas aeruginosa [44]
  MIC: 0.195 µg/mL
Klebsiella oxytoca
  MIC: 50 µg/mL
Vibrio anguillarum [45]
  MBC: 50 µg/mL
Vibrio vulnificus [46]
  Activity: Active
Streptococcus agalactiae [47]
  FIC: 0.14
Klebsiella aerogenes
  FIC: 0.14
Vibrio vulnificus [48]
  Activity: Active
Vibrio vulnificus [49]
  Activity: Active
Escherichia coli [50]
  MIC: 0.39 µg/mL
